Results published in the NIST ThermoML archive (doi:10.1021/je060170c).

Assay: xn = mol fraction of the nth substance listed
Details: 101 kPa, Liquid; for viscosity: Anton Paar Stabinger viscometer

COc1ccccc1 [anisole] + Cc1cccc(C)c1
Details | mass density [kg/m3] | speed of sound [m/s] | viscosity [mPa·s]
288.15 K, x1 = 0.1144 | 882.011 | 1369.2 | 0.696
288.15 K, x1 = 0.2566 | 899.519 | 1380.5 | 0.745
288.15 K, x1 = 0.3821 | 915.327 | 1390.9 | 0.799
288.15 K, x1 = 0.5034 | 930.924 | 1401 | 0.856
288.15 K, x1 = 0.6546 | 950.873 | 1414.1 | 0.933
288.15 K, x1 = 0.7535 | 964.193 | 1424 | 0.995
288.15 K, x1 = 0.8432 | 976.464 | 1432 | 1.049
288.15 K, x1 = 0.9133 | 986.213 | 1439.3 | 1.103
288.15 K, x1 = 0.9576 | 992.455 | 1445.2 | 1.149
288.15 K, x1 = 1 | 998.44 | 1449.1 | 1.188
293.15 K, x1 = 0.1144 | 877.742 | 1351 | 0.645
293.15 K, x1 = 0.2566 | 895.185 | 1362.2 | 0.688
293.15 K, x1 = 0.3821 | 910.905 | 1372.1 | 0.734
293.15 K, x1 = 0.5034 | 926.441 | 1381.4 | 0.783
293.15 K, x1 = 0.6546 | 946.321 | 1393.9 | 0.851
293.15 K, x1 = 0.7535 | 959.605 | 1402.8 | 0.908
293.15 K, x1 = 0.8432 | 971.843 | 1411.1 | 0.958
293.15 K, x1 = 0.9133 | 981.575 | 1418.4 | 1.008
293.15 K, x1 = 0.9576 | 987.755 | 1423.6 | 1.051
293.15 K, x1 = 1 | 993.651 | 1428.5 | 1.084
298.15 K, x1 = 0.1144 | 873.473 | 1328.5 | 0.607
298.15 K, x1 = 0.2566 | 890.874 | 1339.2 | 0.647
298.15 K, x1 = 0.3821 | 906.561 | 1349.8 | 0.687
298.15 K, x1 = 0.5034 | 922.056 | 1360.1 | 0.734
298.15 K, x1 = 0.6546 | 941.9 | 1373.5 | 0.798
298.15 K, x1 = 0.7535 | 955.192 | 1382.5 | 0.852
298.15 K, x1 = 0.8432 | 967.423 | 1391 | 0.899
298.15 K, x1 = 0.9133 | 977.136 | 1398.1 | 0.947
298.15 K, x1 = 0.9576 | 983.283 | 1403.1 | 0.988
298.15 K, x1 = 1 | 989.15 | 1408 | 1.017
303.15 K, x1 = 0.1144 | 869.172 | 1308 | 0.574
303.15 K, x1 = 0.2566 | 886.499 | 1318.7 | 0.604
303.15 K, x1 = 0.3821 | 902.126 | 1328.8 | 0.639
303.15 K, x1 = 0.5034 | 917.578 | 1339.1 | 0.677
303.15 K, x1 = 0.6546 | 937.368 | 1352.6 | 0.733
303.15 K, x1 = 0.7535 | 950.619 | 1362 | 0.782
303.15 K, x1 = 0.8432 | 962.844 | 1371 | 0.824
303.15 K, x1 = 0.9133 | 972.502 | 1378.3 | 0.868
303.15 K, x1 = 0.9576 | 978.641 | 1383.1 | 0.905
303.15 K, x1 = 1 | 984.372 | 1387.7 | 0.931

Cc1cc(C)cc(C)c1 [1,3,5-trimethylbenzene] + COc1ccccc1
Details | mass density [kg/m3] | speed of sound [m/s] | viscosity [mPa·s]
288.15 K, x2 = 0 | 869.169 | 1377.5 | 0.754
288.15 K, x2 = 0.074 | 876.661 | 1383.1 | 0.769
288.15 K, x2 = 0.181 | 887.986 | 1390.7 | 0.802
288.15 K, x2 = 0.334 | 905.232 | 1400.3 | 0.849
288.15 K, x2 = 0.4982 | 925.26 | 1408 | 0.893
288.15 K, x2 = 0.628 | 942.318 | 1420.3 | 0.965
288.15 K, x2 = 0.7512 | 959.611 | 1426.3 | 1.005
288.15 K, x2 = 0.814 | 968.893 | 1433.8 | 1.061
288.15 K, x2 = 0.875 | 978.238 | 1438.6 | 1.101
288.15 K, x2 = 0.94 | 988.554 | 1445.6 | 1.158
293.15 K, x2 = 0 | 865.072 | 1357 | 0.705
293.15 K, x2 = 0.074 | 872.553 | 1361.7 | 0.716
293.15 K, x2 = 0.181 | 883.818 | 1368.1 | 0.743
293.15 K, x2 = 0.334 | 900.968 | 1376.2 | 0.782
293.15 K, x2 = 0.4982 | 920.888 | 1383.3 | 0.819
293.15 K, x2 = 0.628 | 937.858 | 1395.1 | 0.883
293.15 K, x2 = 0.7512 | 955.065 | 1401.5 | 0.92
293.15 K, x2 = 0.814 | 964.301 | 1410 | 0.971
293.15 K, x2 = 0.875 | 973.59 | 1415.8 | 1.007
293.15 K, x2 = 0.94 | 983.844 | 1424.2 | 1.058
298.15 K, x2 = 0 | 861.062 | 1336.9 | 0.661
298.15 K, x2 = 0.074 | 868.529 | 1342.6 | 0.674
298.15 K, x2 = 0.181 | 879.758 | 1350.1 | 0.697
298.15 K, x2 = 0.334 | 896.835 | 1360 | 0.733
298.15 K, x2 = 0.4982 | 916.671 | 1370.5 | 0.767
298.15 K, x2 = 0.628 | 933.575 | 1379.4 | 0.827
298.15 K, x2 = 0.7512 | 950.712 | 1388.1 | 0.863
298.15 K, x2 = 0.814 | 959.91 | 1392.9 | 0.912
298.15 K, x2 = 0.875 | 969.162 | 1397.6 | 0.946
298.15 K, x2 = 0.94 | 979.363 | 1402.8 | 0.993
303.15 K, x2 = 0 | 856.95 | 1316.8 | 0.621
303.15 K, x2 = 0.074 | 864.41 | 1320.5 | 0.633
303.15 K, x2 = 0.181 | 875.58 | 1326.7 | 0.65
303.15 K, x2 = 0.334 | 892.57 | 1336.1 | 0.677
303.15 K, x2 = 0.4982 | 912.31 | 1347.1 | 0.706
303.15 K, x2 = 0.628 | 929.13 | 1356.2 | 0.758
303.15 K, x2 = 0.7512 | 946.19 | 1365.4 | 0.792
303.15 K, x2 = 0.814 | 955.34 | 1370.5 | 0.837
303.15 K, x2 = 0.875 | 964.55 | 1375.6 | 0.87
303.15 K, x2 = 0.94 | 974.7 | 1382.8 | 0.912

COc1ccccc1 [anisole] + Cc1ccc(C)cc1
Details | mass density [kg/m3] | speed of sound [m/s] | viscosity [mPa·s]
288.15 K, x1 = 0.0822 | 875.328 | 1360.3 | 0.728
288.15 K, x1 = 0.187 | 888.441 | 1373.1 | 0.778
288.15 K, x1 = 0.31 | 904.181 | 1384.4 | 0.829
288.15 K, x1 = 0.47 | 925.057 | 1395.9 | 0.884
288.15 K, x1 = 0.637 | 947.54 | 1410.4 | 0.958
288.15 K, x1 = 0.747 | 962.692 | 1420.6 | 1.013
288.15 K, x1 = 0.822 | 973.119 | 1437 | 1.109
288.15 K, x1 = 0.888 | 982.387 | 1443 | 1.145
288.15 K, x1 = 0.949 | 991.051 | 1446.3 | 1.167
288.15 K, x1 = 1 | 998.44 | 1449.1 | 1.188
293.15 K, x1 = 0.0822 | 871.032 | 1339.5 | 0.674
293.15 K, x1 = 0.187 | 884.105 | 1352.5 | 0.717
293.15 K, x1 = 0.31 | 899.758 | 1364 | 0.761
293.15 K, x1 = 0.47 | 920.561 | 1375.3 | 0.809
293.15 K, x1 = 0.637 | 942.968 | 1389.9 | 0.875
293.15 K, x1 = 0.747 | 958.092 | 1400.3 | 0.925
293.15 K, x1 = 0.822 | 968.502 | 1416.7 | 1.013
293.15 K, x1 = 0.888 | 977.769 | 1422.5 | 1.046
293.15 K, x1 = 0.949 | 986.356 | 1425.8 | 1.066
293.15 K, x1 = 1 | 993.651 | 1428.5 | 1.084
298.15 K, x1 = 0.0822 | 866.765 | 1317.4 | 0.635
298.15 K, x1 = 0.187 | 879.807 | 1326.5 | 0.674
298.15 K, x1 = 0.31 | 895.413 | 1337.5 | 0.714
298.15 K, x1 = 0.47 | 916.177 | 1352.2 | 0.759
298.15 K, x1 = 0.637 | 938.559 | 1368.2 | 0.821
298.15 K, x1 = 0.747 | 953.665 | 1379.3 | 0.868
298.15 K, x1 = 0.822 | 964.094 | 1387.4 | 0.952
298.15 K, x1 = 0.888 | 973.344 | 1394.8 | 0.985
298.15 K, x1 = 0.949 | 981.943 | 1401.8 | 1.003
298.15 K, x1 = 1 | 989.105 | 1408 | 1.017
303.15 K, x1 = 0.0822 | 862.434 | 1296.9 | 0.597
303.15 K, x1 = 0.187 | 875.432 | 1306.5 | 0.628
303.15 K, x1 = 0.31 | 890.974 | 1317.6 | 0.662
303.15 K, x1 = 0.47 | 911.659 | 1332.7 | 0.7
303.15 K, x1 = 0.637 | 933.983 | 1349.1 | 0.754
303.15 K, x1 = 0.747 | 949.069 | 1360.5 | 0.798
303.15 K, x1 = 0.822 | 959.511 | 1368.5 | 0.875
303.15 K, x1 = 0.888 | 968.761 | 1375.6 | 0.903
303.15 K, x1 = 0.949 | 977.313 | 1382.3 | 0.918
303.15 K, x1 = 1 | 984.372 | 1387.7 | 0.931
